According to the NIST ThermoML archive (doi:10.1021/je600519p):

Assay: refractive index (Na D-line) (dimensionless); xn = mol fraction of the nth substance listed
Details: 101 kPa, Liquid

CC(=O)c1ccccc1 [acetophenone] + CCCCCCO
refractive index
Details	293.15 K	303.15 K	313.15 K	323.15 K
x1 = 0.0498	1.4234	1.4196	1.4153	1.4113
x1 = 0.1009	1.4291	1.4253	1.421	1.417
x1 = 0.1517	1.4348	1.431	1.4267	1.4227
x1 = 0.2106	1.4415	1.4377	1.4334	1.4293
x1 = 0.2474	1.4457	1.4419	1.4376	1.4335
x1 = 0.3028	1.4521	1.4482	1.4439	1.4398
x1 = 0.3426	1.4567	1.4528	1.4484	1.4443
x1 = 0.3978	1.4631	1.4591	1.4547	1.4506
x1 = 0.4512	1.4693	1.4653	1.4608	1.4567
x1 = 0.4985	1.4748	1.4707	1.4662	1.4621
x1 = 0.5526	1.4811	1.4769	1.4724	1.4682
x1 = 0.6071	1.4874	1.4832	1.4786	1.4743
x1 = 0.6491	1.4923	1.488	1.4834	1.479
x1 = 0.7101	1.4994	1.495	1.4903	1.4858
x1 = 0.7485	1.5039	1.4994	1.4947	1.4901
x1 = 0.8019	1.5101	1.5056	1.5008	1.4962
x1 = 0.8521	1.516	1.5114	1.5066	1.5019
x1 = 0.9045	1.5222	1.5175	1.5126	1.5079
x1 = 0.9554	1.5283	1.5235	1.5185	1.5137

CC(=O)c1ccccc1 [acetophenone] + CCOC(=O)OCC
refractive index
Details	293.15 K	303.15 K	313.15 K	323.15 K
x2 = 0.0511	1.5269	1.5221	1.5172	1.5123
x2 = 0.1014	1.5201	1.5154	1.5107	1.506
x2 = 0.1501	1.5134	1.5089	1.5043	1.4998
x2 = 0.1996	1.5065	1.5022	1.4976	1.4932
x2 = 0.2465	1.5001	1.4958	1.4913	1.4869
x2 = 0.3041	1.4919	1.4877	1.4833	1.479
x2 = 0.3467	1.4858	1.4817	1.4774	1.4731
x2 = 0.4001	1.4781	1.474	1.4697	1.4656
x2 = 0.4507	1.4707	1.4666	1.4624	1.4583
x2 = 0.4888	1.4651	1.461	1.4568	1.4527
x2 = 0.5506	1.4558	1.4518	1.4475	1.4435
x2 = 0.6038	1.4477	1.4437	1.4395	1.4353
x2 = 0.6498	1.4406	1.4366	1.4323	1.4282
x2 = 0.7104	1.4312	1.4271	1.4228	1.4186
x2 = 0.7513	1.4247	1.4206	1.4164	1.4121
x2 = 0.8078	1.4158	1.4116	1.4072	1.4029
x2 = 0.8522	1.4086	1.4043	1.3999	1.3957
x2 = 0.8993	1.401	1.3966	1.3922	1.3878
x2 = 0.9488	1.3929	1.3884	1.3839	1.3791

CCOC(=O)OCC [diethyl carbonate] + CCCCCCO
refractive index
Details	293.15 K	303.15 K	313.15 K	323.15 K
x1 = 0.0502	1.4168	1.4131	1.4089	1.4049
x1 = 0.1123	1.4152	1.4115	1.4075	1.4036
x1 = 0.1499	1.4143	1.4106	1.4065	1.4026
x1 = 0.2103	1.4125	1.4088	1.4047	1.4007
x1 = 0.2508	1.4111	1.4074	1.4034	1.3994
x1 = 0.3121	1.4089	1.4051	1.4011	1.3971
x1 = 0.3576	1.4071	1.4033	1.3992	1.3953
x1 = 0.4113	1.4049	1.4011	1.3969	1.3931
x1 = 0.4632	1.4028	1.3989	1.3947	1.3909
x1 = 0.5111	1.4008	1.3969	1.3927	1.3887
x1 = 0.552	1.3991	1.3952	1.3909	1.3868
x1 = 0.6008	1.3972	1.3931	1.3888	1.3846
x1 = 0.6498	1.3953	1.3911	1.3867	1.3825
x1 = 0.7108	1.3929	1.3887	1.3842	1.3798
x1 = 0.7554	1.3912	1.387	1.3825	1.3779
x1 = 0.8112	1.3894	1.3851	1.3805	1.3758
x1 = 0.8501	1.3883	1.3838	1.3792	1.3745
x1 = 0.9002	1.3869	1.3823	1.3776	1.3729
x1 = 0.9555	1.3855	1.3809	1.3762	1.3714
